Source: PubChem BioAssay AID686920 (Broad Institute, 2013)

The compounds below were run on A673 NR0B1-luciferase reporter, viability-normalised luminescence (assay: NR0B1 reporter signal reduction in A673 cells – cell-based, luciferase luminescence, cherry-pick, EWS/Fli inhibitor project, dose response (AID 686920)).

Row | SMILES | AC35 [µM]
1 | C#CCOCCOCCOCCNc1nc(N2CCN(C(=O)CCCCCCCCCCNC(=O)Cn3cc(C[C@@H](C)O)nn3)CC2)nc(N2CCN(C(=O)CCCCCCCCCCNC(=O)[C@H](CO)n3cc(CCCSC)nn3)CC2)n1 | 9.81
2 | C[C@H](CO)N1C[C@H](C)[C@H](CN(C)Cc2ccc(C(F)(F)F)cc2)Oc2ccc(NC(=O)CCCCCC(=O)Nc3ccccc3N)cc2CC1=O | 6.04
3 | O=C1/C(=C\c2ccccc2)CN(C(=O)CCN2CCCCC2)C/C1=C/c1ccccc1 | 2.54
4 | COC(=O)Cc1[nH]n(-c2nc3ccccc3s2)c(=O)c1C(C)=Nc1ccc(OC)cc1 | 4.31
5 | COc1ccc(CCCNC(=O)C2Cc3c(-c4ccc5c(c4)OCO5)ccnc3O2)cc1 (configuration not stated) | 10.5
6 | CN(C)c1ccc(N=Nc2ccccc2Br)cc1 | 21.3
7 | O=C(NC1CCCC1)C(c1ccccc1)n1c(CSCCOc2ccccc2)nc2ccccc21 (configuration not stated) | 2.19
8 | CCCNC(=O)N1[C@H](C#N)[C@H](c2ccc(C#Cc3ccc(F)cc3)cc2)[C@H]1CO | 10.1
9 | C[C@@H]1CN([C@H](C)CO)S(=O)(=O)c2ccc(C#Cc3ccncc3)cc2O[C@@H]1CN(C)C(=O)Nc1ccc2c(c1)OCO2 | 24.5
10 | CCOc1ccc(-c2cc(CCCC(=O)N3CCN(c4ccc(OC)cc4)CC3)no2)cc1 | 27.6
11 | C[C@H]1CN([C@@H](C)CO)S(=O)(=O)c2ccc(C#CC(C)(C)O)cc2O[C@@H]1CN(C)Cc1ccc(-c2ccccc2)cc1 | 1.09
12 | COc1ccc(NC(=O)c2cc3ccccc3oc2=O)cc1 | 2.99
13 | C[C@@H]1CN([C@@H](C)CO)C(=O)c2cc(NS(=O)(=O)c3ccc(Cl)cc3)ccc2O[C@@H]1CN(C)Cc1ccc(C(=O)Nc2ccccc2N)cc1 | 7.36
14 | CN(C)c1ccc(-c2ccnc3c2CC(C)(C(=O)NCc2ccco2)O3)cc1 (configuration not stated) | 6.85
15 | CCOC(=O)Cc1ccc(NC(=O)c2ccccc2Br)cc1 | 4.18
16 | CCC(C)Cn1c(O)cc2nn(-c3nc4ccccc4s3)c(=O)c-2c1C (configuration not stated) | 1.57
17 | O=C1NC(=O)N(Cc2ccc(F)cc2)C(=O)/C1=C\C=C\c1ccco1 | 7.32
18 | COc1cccc(OC)c1C(=O)Nc1cc(C)nn1-c1nc2ccccc2[nH]1 | 26.7
19 | COC(=O)c1cccc(NC(=O)NC(=O)c2ccccc2Cl)c1 | 0.215
20 | O=C(Nc1ccc(F)cc1)N1CCCCN2[C@@H](CO)[C@H](c3ccc(C4=CCCCC4)cc3)[C@@H]2C1 | 13.3
21 | Nc1ccc(-c2cc3ccccc3oc2=O)cc1 | 0.208
22 | O=c1cc(-c2ccccc2)oc2ccc3ccccc3c12 | 1.43
23 | C(=Cc1cnc2ccccc2n1)c1ccc2c(c1)OCO2 | 1.12
24 | O=C(NC(=O)c1ccccc1)Nc1ccccc1 | 12.8

Row | SMILES | AC35 [µM]
25 | C[C@H]1CN([C@@H](C)CO)C(=O)Cc2cc(NC(=O)CCC(F)(F)F)ccc2O[C@H]1CN(C)Cc1ccc(C(=O)Nc2ccccc2N)cc1 | 6.66
26 | C[C@]12CC[C@H](O)C[C@H]1CC[C@@H]1[C@@H]2CC[C@]2(C)[C@@H](C3=CC(=O)OC3)CC[C@]12O | 0.395
27 | COc1ccc(NC(=O)N(C)[C@H]2C[C@H]3c4[nH]c5ccccc5c4CCN3C(=O)[C@H]2CO)cc1 | 12
28 | COc1ccc(/C=C2\SC(=O)N(CCCC(=O)Nc3cc(Cl)ccc3C(=O)O)C2=O)cc1 | 0.169
29 | COC(=O)Cc1[nH]n(-c2nc3ccccc3s2)c(=O)c1C(C)=Nc1ccc(C)cc1 | 0.17
30 | Nc1ccc(Oc2ccccc2-c2ccccc2)cc1 | 2.49
31 | N#C[C@H]1[C@H](c2ccc(C#Cc3ccccc3F)cc2)[C@@H](CO)N1C(=O)C1CCOCC1 | 34
32 | COc1ccccc1NC(=O)N1CCCCN2[C@H](CO)[C@H](c3ccc(-c4cccc(C)c4)cc3)[C@H]2C1 | 8.3
33 | O=c1ccc2[n+]([O-])c3ccc(O)cc3oc-2c1 | 3.7
34 | COC(=O)C[C@@H]1CC[C@@H]2[C@H](COc3ccc(NC(=O)c4ccccc4)cc3C(=O)N2C)O1 | 53.4
35 | O=C(O)c1ccc(N/N=C/c2cc(Br)cs2)cc1 | 7.22
36 | COc1ccc(N=C2C(=O)Nc3ccc(C)c(Br)c32)cc1 | 10
37 | C[C@@H]1CN([C@@H](C)CO)C(=O)Cc2cc(NS(=O)(=O)c3cccs3)ccc2O[C@H]1CN(C)Cc1ccc(Cl)c(Cl)c1 | 3.76
38 | Cc1c(CC(=O)NCCCC(=O)O)c(=O)oc2cc3c(cc12)CCC(C)(C)O3 | 2.74
39 | C[C@]12CC[C@H](O)C[C@H]1CC[C@@H]1C2CC[C@]2(C)[C@@H](C3=CC(=O)OC3)[C@@H](O)C[C@]12O (some centres not stated) | 2.86
40 | Cc1ccccc1NC(=O)C(=Cc1ccc(C(=O)O)cc1)C(=O)Nc1ccccc1C | 5.63
41 | COc1ccc(C2=Nn3c(nnc3-c3ccccc3F)SC2)cc1OC1CCOC1 (configuration not stated) | 4.37
42 | CCN(CC)c1ccc(C2NC(=O)c3ccccc3N2)cc1 (configuration not stated) | 3.8
43 | C[C@@H]1CN([C@H](C)CO)C(=O)c2cc(C#CCN(C)C)cnc2O[C@H]1CN(C)Cc1ccc(-c2ccccc2)cc1 | 10.9
44 | COC(=O)C[C@@H]1CC[C@@H]2[C@H](COc3ccc(NC(=O)Nc4ccc(C#N)cc4)cc3C(=O)N2C)O1 | 62.4
45 | COc1ccc(C=C2CCc3ccccc3C2=O)cc1 | 10.4
46 | CCN1/C(=C/C=C/c2oc3ccc(-c4ccccc4)cc3[n+]2CC)Oc2ccc(-c3ccccc3)cc21 | 2.49
47 | Cc1cc2sc3ccc(C#CC4(O)CCCCC4)cc3c(=O)c2cc1C | < 0.03
